The data set in a line: gradient 5% acetonitrile 3 min, to 50% in 2 min, to 85% in 15 min, held 3 min, 100 µL/min. Particulars: column: Zorbax Extend-C18 2.1 x 50 mm; eluents: water / acetonitrile, 0.1% formic acid. Summed up: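 Values are retention times taken from adduct peaks that software picked and an analyst inspected. The pure standards were run as mixtures of ~100 molecules on HPLC linked to a quadrupole time-of-flight mass spectrometer, in positive and negative ionization mode. A Zorbax Extend-C18 column (2.1 × 50 mm, 1.8 μm) was used at 100 μL/min with water and acetonitrile, each including 0.1% formic acid.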
In turn, `Cc1ccc(-c2ncccc2CNS(=O)(=O)Cc2cc(F)cc(F)c2)cc1` gave an RP-LC retention time of 739 s. The same measure for `Cc1ccc(C)c(C(=O)Nc2ccc3c(c2)Sc2ncccc2C(=O)N3C(C)C)c1`: 922 s; for `Cc1noc(-c2ccc(NC(=O)c3cccnc3)cc2)n1`: 824 s. The same measure for `COc1ccccc1CNC(=O)C1CN(C(=O)c2cccs2)CC12CCCCC2` (centres undefined): 912 s.

Take `N#Cc1ccc(NC2c3ccccc3CC2O)cc1` (centres undefined): the RP-LC retention time was 822 s. Turning to `CC(C)CN1C(=O)CCc2cc(NS(=O)(=O)c3ccc(Cl)cc3)ccc21`, the RP-LC retention time turned out to be 946 s.

Take `CC(C)C(=O)NCc1csc(C2CCCN(C(=O)CC(C)(C)C)C2)n1` (centres undefined): the RP-LC retention time amounted to 734 s. The same measure for `O=C(c1cn(-c2cc(N3CCSCC3)ncn2)cn1)N1CCSCC1`: 774 s.

For the compound `O=C(NCc1ccccn1)c1ccc(NC(=O)C2CC2)cc1N1CCCCCC1`, the RP-LC retention time amounted to 593 s.

The compound `CCOc1cc(C(=O)Nc2c(-c3ccccc3)nc3ccccn23)cc(OCC)c1OCC` had an RP-LC retention time of 759 s. The compound `CCc1ccc2c(c1)-c1ccccc1S(=O)(=O)N2CC(=O)NCCN1CCOCC1` came in with an RP-LC retention time of 671 s. The same measure for `O=C(Nc1ccc2c(c1)OCCO2)c1c(O)c2cccnc2n(-c2ccccc2)c1=O`: 1150 s; for `Cc1ccc(C(=O)NCCc2nc3cccnc3n2C(C)C)cc1`: 666 s. The same measure for `COc1ccccc1N1CCN(c2cc(SCC(=O)Nc3cccc(Cl)c3)ncn2)CC1`: 1030 s; for `COc1cccc(-c2noc(CN3C(=O)COc4cc(C(C)(C)C)ccc43)n2)c1`: 1200 s; for `COc1ccccc1-c1nnc(-c2ccc(Cl)c(S(=O)(=O)N3CCCC3)c2)o1`: 992 s. The same measure for `COCc1ncc(C)n1CC1CN(C(=O)c2cccn2C)C1`: 585 s. The compound `COc1ccc(Nc2c(-c3ccc(O)c(OC)c3)nc3nc(C)cc(C)n23)cc1` came in with an RP-LC retention time of 617 s. As to `CC(=O)Nc1ccc(N(Cc2nnc3n2CCCCC3)C(=O)Nc2ccc(Cl)cc2)cc1`, the RP-LC retention time came to 690 s.

`CNC(=O)C1CCCN(c2nc3ncn(CC(=O)Nc4cc(C)ccc4OC)c(=O)c3s2)C1` (centres undefined) returned an RP-LC retention time of 678 s.

`CN1C(=O)[C@H]2CN(Cc3cc(F)cc(F)c3)C[C@H]2C1=O` yielded an RP-LC retention time of 610 s. The same measure for `CCN1CCN(c2ccc(-c3nc(-c4ccc(C)cc4)no3)cn2)CC1`: 715 s; for `Cc1ccc(-c2nc(CN3CCN(C(=O)NC(C)C)CC3)c(C)o2)cc1`: 592 s; for `CCOC(=O)c1c(C)n(C)c2ccc(O)cc12`: 803 s. Turning to `CN(Cc1ccco1)C(=O)c1ccc(-n2cc(CNC(=O)C3CC3)cn2)cc1`, the RP-LC retention time amounted to 676 s.

As for `O=C(CN1C(=O)COc2ccc(S(=O)(=O)N3CCOCC3)cc21)NCCc1c[nH]c2ccccc12`, the RP-LC retention time came to 777 s. As for `Cc1ccc(CC(=O)Nc2ccc3c(c2)CCC(=O)N3)cc1`, the RP-LC retention time came out at 708 s. The same measure for `Cc1nc(-c2ccc3c(c2)n(CC(=O)N2CCn4c2nc2ccccc24)c(=O)n3C(C)C)no1`: 832 s.

Turning to `CNC(=O)c1ccc(-c2nc3cc(NS(=O)(=O)c4ccccc4Cl)ccc3n2C)cc1`, the RP-LC retention time worked out at 633 s.

`COc1cccc(-n2c(=O)c3sccc3n(Cc3nc(-c4ccccc4)no3)c2=O)c1` displayed an RP-LC retention time of 956 s. `O=C1NC2(CCN(C(=O)c3cc(F)cc(F)c3)CC2)Nc2c(Cl)cccc21`: the RP-LC retention time was 760 s. The same measure for `O=C(NCCc1c[nH]c2ccccc12)C1CCCN(c2nn3c(=O)c4c(nc3s2)CCCC4)C1` (centres undefined): 775 s; for `O=C(Cc1csc2nc(-c3ccccc3)cn12)NCCCc1ccccc1`: 841 s. The same measure for `CCN1c2ccccc2C(=O)NC12CCN(C(=O)Nc1ccccc1F)CC2`: 748 s.

On to `CC(C)NC(=O)N1CCCC(c2cccc(C(=O)NCCCN3CCCCC3)c2)C1` (centres undefined), for which the RP-LC retention time was 623 s.

Turning to `Cn1cc(CN2CCC(C(=O)NCc3ccc(F)cc3)CC2)c2cc(Cl)ccc21`, the RP-LC retention time is 716 s.

Compound `CN(C)c1ccc(CNC(=O)C2CCN(c3cnc4nccnc4c3)CC2)cc1` showed an RP-LC retention time of 562 s. Compound `O=C(CN1C(=O)CC(c2ccccc2)=Nc2cccnc21)Nc1ccc(Cl)cc1` displayed an RP-LC retention time of 1010 s. The same measure for `CN(CCNC(=O)C1CCCN(c2cnc3nccnc3c2)C1)C1CCCCC1` (centres undefined): 577 s. The same measure for `CCOC(=O)c1[nH]c(C)c(CCC(=O)N2CCC(C(=O)NCC3CCCO3)CC2)c1C` (centres undefined): 670 s; for `CCOC(=O)Nc1nc2c(s1)CN(S(=O)(=O)N(C)C)CC2`: 670 s.

In turn, `CC1=C(c2ccccc2)S(=O)(=O)N=C1N1CCCN(C(=O)c2ccc(F)cc2)CC1` came in with an RP-LC retention time of 805 s. The same measure for `Cc1cc(C)cc(NC(=O)CSc2nccc(N3CCN(c4cc(C)ccc4C)CC3)n2)c1`: 989 s; for `COCC1CN(S(=O)(=O)c2cc(F)ccc2OC)CC12CCNCC2` (centres undefined): 611 s. The same measure for `O=C(c1ccc2c(c1)N(Cc1ccccc1)C(=O)CO2)N1CCc2ccccc21`: 980 s; for `CC(C)c1noc(-c2cccnc2N2CCCN(Cc3c(F)cccc3Cl)CC2)n1`: 721 s; for `COCCCNC(=O)CN1C(=O)C2CCCCN2c2ccc(C(=O)N3CCCC3)cc21` (centres undefined): 696 s.

`COc1ccc(N2CC(c3nc(-c4ccc(Cl)cc4)no3)CC2=O)cc1OC` (centres undefined) showed an RP-LC retention time of 947 s. The same measure for `CCC(=O)Nc1ccc(CCc2nc3ccc(C(=O)NCc4ccc(C)o4)cc3[nH]2)cc1`: 638 s; for `COc1ccc(Nc2c(-c3ccc(OC)c(OC)c3)nc3cnccn23)cc1OC`: 672 s. The same measure for `O=C(Nc1cc(F)ccc1F)N1CCC(CCNC(=O)C2(c3ccccc3)CC2)CC1`: 948 s; for `CCC(=O)Nc1ccc(C2(C(=O)N3CCOCC3)CCCCC2)cc1`: 721 s; for `CCn1c(=O)c2c(cc(C)n2C)n(CC(=O)Nc2ccc(C)c(F)c2)c1=O`: 855 s. The same measure for `CCC(=O)NCCc1csc(C2CCCN(C(=O)C3(c4ccccc4)CC3)C2)n1` (centres undefined): 736 s; for `CC1CN(CC(=O)N2CCN(c3ncccn3)CC2)c2ccccc2S1` (centres undefined): 918 s. `Cc1cccc2nc(-c3cccc(Cl)c3)c(Nc3ccc4c(c3)OCCO4)n12`: the RP-LC retention time came out at 717 s. The same measure for `O=c1c2cc3c(cc2nc(SCc2nc(-c4ccc(Cl)cc4)no2)n1CC1CCCO1)OCO3` (centres undefined): 1230 s.

`CN(C1CCOCC1)C1CCN(C(=O)c2ccc(Cl)cc2)CC1`: the RP-LC retention time was 589 s. The same measure for `CCNC(=O)c1ccc(-c2ccc3c(c2)CCN3C(C)=O)cc1`: 691 s; for `Cc1noc(-c2ccc(OC3CN(C(=O)c4ccco4)C3)cc2)n1`: 789 s. The same measure for `O=C(NCCN1CCCC1)C1CCCN(c2ccc(Sc3ccc(Br)cc3)nn2)C1` (centres undefined): 663 s. The same measure for `C[C@]12CCC(=O)C(=O)C1CC[C@@H]1[C@@H]2CC[C@]2(C)C(=O)CC[C@@H]12` (some centres undefined): 1030 s; for `CCOc1ccc(S(=O)(=O)N2CCCC(C(=O)Nc3cccc(C)c3)C2)cc1` (centres undefined): 1050 s; for `CC(=O)[C@@]1(O)[C@H](C)C[C@H]2[C@@H]3C=C(C)C4=Cc5c(cnn5-c5ccccc5)C[C@]4(C)[C@H]3[C@@H](O)C[C@@]21C`: 1200 s. Compound `CCOC(=O)c1cc(-c2cccc(OC)c2OC)no1` gave an RP-LC retention time of 896 s. The same measure for `O=C(NCc1cc(F)cc(F)c1)c1sc2ncccc2c1-n1cccc1`: 1030 s; for `Cc1nnc(-c2ccc(Cl)cc2)nc1N1CCC(C)CC1`: 897 s. The compound `COCCNC(=O)C(C)Sc1ccc(=O)n(-c2ccc(C)c(Cl)c2)n1` (centres undefined) displayed an RP-LC retention time of 731 s. The same measure for `Cc1nc(N2CCC(C(=O)Nc3cc(F)ccc3F)CC2)c2c(C)c(C)oc2n1`: 972 s.

Compound `Cc1ccc(C2=NC3(CCN(C(=O)c4ccoc4)CC3)ON2)cc1` gave an RP-LC retention time of 752 s. The same measure for `CCCNc1cc(N2CCC(CCC(=O)NCc3ccccc3)CC2)ncn1`: 666 s; for `O=C(Nc1cccc(Cl)c1)C1CCN(S(=O)(=O)c2cc(C(=O)N3CCOCC3)cs2)CC1`: 850 s; for `O=C(Nc1ccc2ncccc2c1)Nc1ccc2ncccc2c1`: 604 s. Turning to `Cc1ccc(-n2c(N3CCCC(C(=O)NCc4ccc(F)cc4)C3)nc3ccsc3c2=O)cc1` (centres undefined), the RP-LC retention time came to 919 s. The compound `CC1=NS(=O)(=O)N(C)C=C1C(=O)OCc1nc(-c2ccc(C)cc2)no1` showed an RP-LC retention time of 977 s.

The compound `CCOC(=O)c1ccccc1NC(=O)Cn1nc2cc(-c3ccccn3)nc(C)n2c1=O` registered an RP-LC retention time of 875 s. The same measure for `CCc1ccc(Nc2nc(C(=O)NC)nc3ccccc23)cc1`: 708 s. The same measure for `CCCNc1cc(N2CCC(CCC(=O)NCCOC)CC2)ncn1`: 590 s.

Regarding `COCc1nc(NCc2cccnc2)ncc1C(=O)O`, the RP-LC retention time was determined as 809 s.

The values above are taken from the METLIN SMRT retention time set (Domingo-Almenara et al. 2019).
